In patent US5736518A, “Peptide compounds of (L) amino acids and ring molecules, and therapeutical applications thereof” (Polifarma S.p.A., priority 1990, dated 1998):
Square brackets hold non-standard residues; d marks the D form. Peptide text beside a SMILES is read from it. * marks the point of attachment. Phg = N[C@H](C(=O)O)c1ccccc1; Cbz = O=C(OCc1ccccc1)*

Legend:
[1] = Hot Plate test (analgesic activity); assay type: in vivo
Text: (§1) In the following examples will first of all be given the data necessary for synthesis of the compounds according to the present invention. There will then be given data regarding their pharmacological activity, using methods widely known to be valid. In particular, for the pressure tests, spontaneously hyper-tensive rats were used (SHR from the company Charles River), operated in such a way as to enable pressure to be read even when the animals were awake and free to move. In order to evaluate the analgesic activity, the Hot Plate and Writhing Tests were used. For the anti-inflammatory effect the test of carraginine edema was used. Finally, for immuno-modulating activity the evaluation of the stimulation of growth of human lymphocytes in culture was resorted to, after the addition of specific antigens. The results obtained for each synthesized compound are given at the end of each example.

[2] = system: spontaneously hyper-tensive rats (SHR from the company Charles River); test: pressure tests in spontaneously hypertensive rats, awake and free to move; assay type: in vivo
Text: as §1, with “antigens.” for “antigens. The results obtained for each synthesized compound are given at the end of each example.”

[3] = system: human lymphocytes in culture; test: immuno-modulating activity: stimulation of growth of human lymphocytes in culture after addition of specific antigens; assay type: cell-based; settings: PHA stimulated lymphocytes
Text: as §1

Structure (SMILES) | analgesic effect, Hot Plate test (in words) ([1]; dose not stated) | anti-hypertensive effect (in words) ([2]; 8 mg/Kg i.p.) | pain killing effect under the Hot Plate test (in words) ([1]; 4 mg/Kg i.p.) | response of lymphocytes stimulated by phytohemoagglutinine (PHA) (in words) [3] | anti-hypertensive effect (in words) ([2]; 4 mg/Kg i.p.) | duration of the anti-hypertensive effect ([2]; 4 mg/Kg i.p.) | reduction of pressure values ([2]; 4 mg/Kg i.p.)
COC(=O)[C@@H](NC(=O)[C@H](C)NC(=O)[C@@H]1CCCN1C(=O)OCc1ccccc1)c1ccccc1 [compound 5, Z-(L)-Pro-(L)-Ala-(L)-PhgOMe] (Cbz-Pro-Ala-[Phg]-OMe) | moderate analgesic effect | bland anti-hypertensive effect | – | – | – | – | –
CCOC(=O)[C@@H]1Cc2c([nH]c3ccccc23)CN1C(=O)[C@H](C)NC(=O)[C@@H]1CCCN1C(=O)OCc1ccccc1 [compound 1, Z-(L)-Pro-(L)-Ala-(S)-CytOEt] | – | – | slight pain killing effect | increases the response of lymphocytes | good anti-hypertensive effect | a number of hours | 15-20%
